These results are taken from PMC4821601, “The Interactions of P-Glycoprotein with Antimalarial Drugs, Including Substrate Affinity, Inhibition and Regulation” (PLoS ONE, 2016).

One data set has as its system P-gp. The conditions noted are these: 20 μM, 96 hours, Caco-2, western blot vs control. The procedure:
Caco-2 cells were seeded in 6 well plates at 10,000 cells/cm^2 for 21 days. Drugs and drug combinations at 20 μM prepared in cell growth medium were added on to the mature cells and exposed for 96 hours. After drug exposure, cells were washed three times using PBS and cell lysate was prepared in lysis buffer. The protein content was quantified using the 96 well micro-Lowry protein assay and regulation of P-gp was determined using western blotting.
The membrane was blocked using 2% casein in TBS and washed with TBST. The primary antibody; Mdr (G-1) mouse monoclonal IgG2b 200 and mouse anti-β actin were used as the antibody for β-actin, the reference protein. The antibody; HRP linked goat anti mouse IgG was used as the secondary antibody. The washed membrane was incubated in a BioRad clarity chemiluminescent substrate and enhancer was read and semi quantified using the BIORAD Chemidoc MPT imager with Image LabTM software.
A general note: Immunoblotting shows a protein as a band on a membrane.

The test system of a further data set is Caco-2 cell monolayers. The data set can be described thus: Bidirectional transport (Papp, efflux ratio) of antimalarials through Caco-2 cell monolayers. It counts as in vitro ADME, human. The procedure: (§1) The initial experiments were conducted in mid-40s passage cells and repeated in early 80s passage Caco-2 cells. […] In order to maintain equivalent transport medium (HBSS/HBSS with inhibitor) level both outside and inside the chambers, 300 μL was used as medium in the apical chambers and 600 μL in the basolateral chambers. […] Drugs were co-incubated with MRCP, BCRP and ATP hydrolysis blockers to determine the involvement of other efflux mechanisms. Prior to the experiment, the transport medium, HBSS or HBSS with P-gp inhibitors were pre-incubated with the cells for 30 minutes. Following incubation, inserts were placed in new well plates and donor chamber is replaced with drug or drug with inhibitor and the receiver chamber with blank HBSS or HBSS with inhibitor. Transport medium was collected from the receiver chamber after stirring at time intervals of 30, 60, 90 and 120 minutes and was replaced with the same volume of fresh HBSS, or HBSS with inhibitor, when P-gp inhibitors were used in the study. At the end of the experiment 100 μL of medium was removed from the donor chamber in addition to medium collected from the receiver chamber during the study. The cells were then washed thoroughly in cold (4°C) PBS and cell membranes attached to the inserts were sonicated for 10 minutes in a sonicating water bath and centrifuged at 10,000 g for 10 minutes. Supernatant was frozen at -80°C until assayed. […] CL.vol=[…].vol = clearance volume (mL), n = time (min), Aa = amount in acceptor compartment at time n (pmols), Cd0 = concentration in donor compartment at time zero (nM), Vd = volume of the donor compartment (mL), Ca = concentration in acceptor compartment at the previous time point (nM), Vs = sample volume of previous time point (mL), Ac = amount of compound associated with the cells (pmol), Nfin = final time point (min). […] The cleared volume was plotted against time and the slope of the regression line was divided by the surface area to obtain the Papp values. […] The method from Davis and colleagues was adopted with slight modifications. Separations were performed using an Apollo C18 (5 μm, 4.6x150mm) column attached to a matched guard column (5 μm, 4.6x5.5 mm). […] The injection volume was 40 μL and column oven was maintained at 35°C. The analytes were detected at 222 nm and the retention time was 5.6 minutes. Assay developed by Pussard and co-workers were used and slight modifications were done to adjust laboratory conditions. Separation was done using a Prevail C18 (3 μm, 4.6x150mm) column attached to a Direct-connect^TM universal column prefilter. The mobile phase consisted of 20 mM (w/v) KH2PO4 in deionized water at pH 3.0 and acetonitrile (82:18) v/v. […] The injection volume was 40 μL and column oven was maintained at 30°C. The analytes were detected at 343 nm with a retention time of 2.4 minutes. […] Separations were performed using an Apollo C18 (5 μm, 4.6x150mm) column attached to matched guard column (5 μm, 4.6x5.5mm). […] The injection volume was 40 μL and column oven was maintained at 30°C. The analytes were detected at 660 nm with a retention time of 3.8 minutes. A 40 μL sample was spiked with 5 μL 0.5 mM artemisinin internal standard. […] The pipettor was adjusted to the maximum volume (100 μL). […] Pre-treated samples were loaded into the tips by gently aspirating and discarding into the same vial. The process was repeated 10 times in order to increase binding efficiency of drugs to the OMIX 96 C4 matrix. […] The LC-MS method described by […] and co-workers were modified to suit the LC-MS-MS conditions. […] Wexford, Ireland) at 40°C. […] Quantitation was performed in multiple reactions monitoring, MRM mode, using DUIS (ESI^+ and APCI^+) ion sources. […] The optimized mass spectra were acquired with an interface voltage of 4.5 kV, a detector voltage of 1.0 kV, a heat block temperature of 500°C and a desolvation temperature of 160°C.
(Passage across Caco-2 layers is used to estimate intestinal permeability.)

Assay in data set [1]: as above
The format is in vitro ADME, human. The following applies: human; for Papp at 120 min: Caco-2, Caco-2 monolayers. The procedure: as §1

Like-named read-outs stand apart in the source and are kept apart here. Marks after values point to notes of the source that are not given here.

As usually defined, the efflux ratio is the permeability from basolateral to apical divided by that in the opposite direction, in the common usage. For the compound `OC(c1cc(C(F)(F)F)nc2c(C(F)(F)F)cccc12)C1CCCCN1` (stereo not drawn) [MQ, mefloquine], in the data set on P-gp, the “regulation of P-gp expression” value is listed as “not observed”. Also, the values for the Net flow direction result in the data set on Caco-2 cell monolayers (Conc (μM) + inhibitor (μM): 10), in the data set with Caco-2 cell monolayers (Conc (μM) + inhibitor (μM): 20) and with Caco-2 cell monolayers (Conc (μM) + inhibitor (μM): 100) were “Diffusion (0.02) ^*”, “Diffusion (0.66)” and “Diffusion (0.08)”, respectively. Also, the “drug absorption predicted from Papp” value in the data set on Caco-2 cell monolayers (based on FDA biopharmaceutical classification system) is recorded as 50–84%. The Papp at 120 min in data set [1] (drug alone, read-out: Ap-Bas directional Papp, range over concentrations tested) is 6 to 10 ×10⁻⁶ cm/s; in data set [1] (drug alone, read-out: Bas-Ap directional Papp, range over concentrations tested), 5 to 7 ×10⁻⁶ cm/s; in data set [1] (read-out: permeability across the gastrointestinal epithelium (class)), 1 to 25 ×10⁻⁶ cm/s; in data set [1] (summary in abstract, methylene blue depending on the direction of transport, read-out: permeability), around 10 ×10⁻⁶ cm/s. Besides, the efflux ratio at 120 min, 100 µM in data set [1] (Caco-2, Conc (μM) + inhibitor (μM): 100, Bas-Ap divided by Ap-Bas) is 1.2. Further, the efflux ratio at 120 min, 10 µM in data set [1] (Caco-2, Conc (μM) + inhibitor (μM): 10, Bas-Ap divided by Ap-Bas) was 0.7. Further, the Papp at 120 min, 10 µM in data set [1] (Caco-2, Conc (μM) + inhibitor (μM): 10, first-named drug measured, read-out: Papp Ap-Bas) worked out at 9.9 ± 0.7 ×10⁻⁶ cm/s. Also, in data set [1] (Caco-2, Conc (μM) + inhibitor (μM): 10, first-named drug measured, read-out: Papp Bas-Ap), the Papp B→A at 120 min, 10 µM came out at 6.6 ± 0.4 ×10⁻⁶ cm/s. Also, in data set [1] (Caco-2, Conc (μM) + inhibitor (μM): 20, Bas-Ap divided by Ap-Bas), the efflux ratio at 120 min, 20 µM was determined as 0.9. Moreover, the Papp at 120 min, 20 µM in data set [1] (Caco-2, Conc (μM) + inhibitor (μM): 20, first-named drug measured, read-out: Papp Ap-Bas) amounted to 5.8 ± 0.7 ×10⁻⁶ cm/s. In data set [1] (Caco-2, Conc (μM) + inhibitor (μM): 20, first-named drug measured, read-out: Papp Bas-Ap), the Papp B→A at 120 min, 20 µM stood at 5.3 ± 0.9 ×10⁻⁶ cm/s. Also, in data set [1] (Caco-2, Conc (μM) + inhibitor (μM): 100, first-named drug measured, read-out: Papp Ap-Bas), the Papp at 120 min, 100 µM turned out to be 8.9 ± 0.7 ×10⁻⁶ cm/s. The Papp B→A at 120 min, 100 µM in data set [1] (Caco-2, Conc (μM) + inhibitor (μM): 100, first-named drug measured, read-out: Papp Bas-Ap) stood at 11.4 ± 0.8 ×10⁻⁶ cm/s.
